In ChEMBL document CHEMBL3507680, “University of Dundee, Gates Library screen for HepG2 cell viability”:

Test: Human HepG2 cell viability assay in 384 well format
Format: toxicity, cell-based
Set-up: dose 125 nL, time 70.5 hour; concentration not given beside the values
Conditions: HepG2 cells, read-out: Inhibition

Row | Compound | cytotoxicity at 70.5 h [%]
1 | Cc1nn(C)c(N2CCCN(C)CC2)c1CNC(=O)C(C)(C)C | -0.257
2 | Cc1occc1C(=O)NC1CCN(C(=O)Nc2cccnc2)CC1 | -5.69
3 | CNC(=O)c1ccc(C2CN(Cc3ccc(F)cc3)CCO2)nc1 (configuration not stated) | -1.99
4 | Cc1nc2c(c(NC(C)C)n1)CCN(C(=O)c1cc[nH]n1)CC2 | -8.54
5 | O=C1CC(N(C(=O)CCc2cc(F)ccc2F)C2CC2)C(=O)N1 (configuration not stated) | -7.39
6 | CCC(=O)N1CCC2(CC1)CC(CC(=O)N(C)C)c1ccc(F)cc12 (configuration not stated) | -1.89
7 | CCSc1cncc(N2CCC(NC(=O)C3CCCCC3)CC2)n1 | -13.5
8 | COCCN(Cc1sccc1C)C(=O)C1CCN(C(C)C)CC1 | -2.9
9 | Cc1ccc(C)c(Oc2ccc(CNC(=O)C3CNC(=O)N3)cn2)c1 (configuration not stated) | -1.21
10 | Cc1ncc(C(=O)N2CC(C(=O)N3CCCCCC3)C2)c(C)n1 | -4.02
11 | Cn1cc(CN2CCC3(CCC(C(=O)NCC4CC4)C3)CC2)cn1 (configuration not stated) | -9.54
12 | Cc1cnc(N2CCCC3(COCCN(c4ccc(C)nn4)C3)C2)nc1 (configuration not stated) | -2.56
13 | CCc1ccc(CN2CC[C@H]3[C@H]2CC(=O)N3Cc2cccc(C)n2)o1 | -7.64
14 | CC(C)NC(=O)N1CCC2(CC1)NC(=O)CC2c1ccncc1 (configuration not stated) | -1.45
15 | Cc1nn(C)cc1S(=O)(=O)NCC(c1ccccc1Cl)N1CCCC1 (configuration not stated) | -6.74
16 | COc1ccc(CNC(C)Cn2cccn2)cc1OC (configuration not stated) | 1.53
17 | O=C1CCC2(CCCN(Cc3nnc(C4CC4)o3)C2)CN1CCO (configuration not stated) | 3.23
18 | O=C1CCOCCN1Cc1ccc(C(F)(F)F)c(F)c1 | 14.1
19 | N#Cc1cn(CCN2CCc3ccccc3C2)c(=O)[nH]c1=O | 0.215
20 | OCCOc1ccc(NCc2cccc3cccnc23)cn1 | 17.1
21 | COc1ccc(OC)c(CN(Cc2ccco2)Cc2[nH]cnc2C)c1 | -10.2
22 | Cc1nc(CN(C)C2CCN(Cc3ccc(Cl)s3)C2)no1 (configuration not stated) | -4.8
23 | CC(=O)N1CCC(C(=O)N2CCCC(Cc3ccccn3)C2)CC1 (configuration not stated) | -8.43

Row | Compound | cytotoxicity at 70.5 h [%]
24 | c1ccc(Cc2nc(CNC3CCOC4(CCOCC4)C3)no2)cc1 (configuration not stated) | -13.7
25 | Cc1noc(C)c1CNC(C)c1ccc(S(=O)(=O)N(C)C)cc1 (configuration not stated) | -2.42
26 | CN1CCN(C[C@@H]2OC[C@H]3CN(Cc4cccc(F)c4)CC[C@H]32)CC1 | 2.68
27 | O=C(COCc1nc(-c2ccncc2)no1)N1CCOCC1 | -0.64
28 | CCc1nccn1C1CCCN(C(=O)c2ccc3[nH]nnc3c2)C1 (configuration not stated) | -8.95
29 | CN(C)Cc1nc(C(=O)N2CCCC(COc3ccc(F)cc3)C2)cs1 (configuration not stated) | -7.27
30 | COCCN1CCc2ncc(CN(C)C)n2CC1 | -0.491
31 | O=C1NCCCCC1Sc1nnc(-c2cccnc2)n1C1CC1 (configuration not stated) | -5.84
32 | COC1CN(C(=O)COC(C)=O)CCC(=O)N(C)c2ccccc21 (configuration not stated) | -5.15
33 | Cc1nc(CN(C)C2CCN(CCc3cccs3)C2)no1 (configuration not stated) | 23.7
34 | CCCn1c(C)c(CC(=O)NCC(C)O)c2c1CC(C)(C)CC2=O (configuration not stated) | 2.45
35 | COCCO[C@H]1CCN(C(=O)c2ccno2)[C@H]1Cc1ccncc1 | -11.9
36 | Cc1c[nH]c(CN(C)C(=O)C(C)(C)NC(=O)c2cccs2)n1 | -19.9
37 | CC(C)c1cccc(-n2cc(O)c(C(=O)NCCC(=O)N(C)C)n2)c1 | -6.63
38 | O=C(CNc1cccc(CC(F)(F)F)c1)NCc1ccco1 | -4.32
39 | CNC(=O)[C@H]1C[C@@H]2CN(S(=O)(=O)c3cccc(C)c3)C[C@@H]2N1C | 2.15
40 | N#Cc1cccnc1NCc1ccc(S(=O)(=O)NCC2CCCO2)cc1 (configuration not stated) | 14
41 | CNC(=O)c1cccc(C2CNCCN2C(C)=O)c1 (configuration not stated) | 14.8
42 | COCCN(Cc1ccccc1Cl)c1nc(CCN)nc2ccccc12 | -6.84
43 | COc1ccc(CC(=O)N2CCCC(Cn3cc(CN)nn3)C2)cc1 (configuration not stated) | -4.47
44 | CCN(c1ccc(C(=O)NCCCN2CCCC2)cc1)S(=O)(=O)CC | -8.8
45 | O=C(C1CCOC1)N1C[C@H]2CN(c3ccccc3)C(=O)[C@H]2C1 (some centres not stated) | -4.87
46 | CC(C)N1CCOC(CC(=O)N2CCCN(Cc3cccs3)CC2)C1 (configuration not stated) | -11.6

Row | Compound | cytotoxicity at 70.5 h [%]
47 | CCCn1c(O)nnc1SCC1OCCc2ccccc21 (configuration not stated) | -7.64
48 | O=S(=O)(c1cccs1)N1CCCn2cnc(CO)c2C1 | -1.4
49 | CS(=O)(=O)NCCC1CN(Cc2ccccc2F)CCO1 (configuration not stated) | 0.792
50 | Cc1nc(C)n(CC2CCCN2Cc2ccn(-c3ccccc3)n2)n1 (configuration not stated) | 3.67
51 | CCCNC(=O)CCNC(=O)c1ccccc1N1CCOCC1 | -4.62
52 | CCC(O)Cn1nc(CCSC)nc1-c1ccc2c(c1)OCCO2 (configuration not stated) | 15.5
53 | Cc1ccc(OC2(C(=O)O)CCN(C(=O)CCc3ccco3)CC2)cn1 | -0.99
54 | COc1ccc(NC(=O)C2CCCO2)cc1OCc1cccnc1 (configuration not stated) | 49.9
55 | Cc1nccc(NCc2cncc3c2CCN(CCN(C)C)C3)n1 | 3.96
56 | Cc1[nH]ncc1C(C)NCc1ccc(F)cc1 (configuration not stated) | -1.27
57 | CC(NC(=O)Cc1ccccc1F)(C(N)=O)c1cccc(Cl)c1 (configuration not stated) | -6.76
58 | Cc1cc(C)n(CC2CCCCN2C(=O)c2ccsc2)n1 (configuration not stated) | -2.03
59 | O[C@@H]1CN(Cc2cnccn2)C[C@H]1Oc1ccccc1 | -6.26
60 | COCC(O)CN(C)c1cc(C(F)(F)F)nc(-c2cccnc2)n1 (configuration not stated) | -1.69
61 | O=C(NC[C@H]1CCCC[C@H]1O)c1ccc2nc(-c3ccco3)[nH]c2c1 | -1.94
62 | CN(CCCc1cc(-c2ccccc2)n[nH]1)C(=O)CCCn1cncn1 | -6.04
63 | O=C(c1ccc(-n2cnnn2)cc1)N1CCCC(n2ccnc2)C1 (configuration not stated) | -6.98
64 | O=C(c1sccc1Br)N(Cc1cccnc1)C1CC1 | -13.1
65 | CN(C)c1ccc(CCCNC(=O)NCC(O)c2cccs2)cc1 (configuration not stated) | -8.37
66 | Cc1nc(C)n(CC2CCCN2CCCOc2ccc(C#N)cc2)n1 (configuration not stated) | -4.85
67 | Cc1cc(=O)c2ccccc2n1CC1CCN(C(C)C)C1 (configuration not stated) | -1.13
68 | CNS(=O)(=O)c1ccc(CN(C)Cc2nc3ccc(F)cc3[nH]2)cc1 | -4.95
69 | O=C(c1ccc(S(=O)(=O)N2CCNCC2)cc1)N1CCCC(O)C1 (configuration not stated) | -16.1

Row | Compound | cytotoxicity at 70.5 h [%]
70 | CCn1ccnc1CN1CCCN(CC2CC2)C(C(C)C)C1 (configuration not stated) | -5.83
71 | Cc1cncc(C(=O)N2CCO[C@H]3[C@H](Oc4ccccn4)CC[C@@H]32)c1 | -12.4
72 | O=C1CC(c2ccncc2)c2c(c(C(=O)O)cn2-c2ccccc2)N1 (configuration not stated) | -8.17
73 | CCN(Cc1c(F)cccc1Cl)c1cc(C2CCNCC2)nc(C)n1 | 2.62
74 | CC(C)n1ncc2cc(NC(=O)N3CCC(CO)CC3)cnc21 | 3.41
75 | Cc1cc(C)n(C2CCCN(C(=O)c3csc(C4CC4)n3)C2)n1 (configuration not stated) | -11
76 | CCn1c2c(ccc1=O)CC(NCc1cnn(C)c1)CC2 (configuration not stated) | -4.95
77 | COc1cc(N2CCC3(CC2)CNC(=O)CO3)ncn1 | -8.43
78 | Cc1ccc(CN(CCCN(C)C)Cc2cnc(N(C)C)nc2)o1 | 6.47
79 | Cn1c(CN2CCC(O)CC2)nnc1C1CCCN(C(=O)C2CNC2)C1 (configuration not stated) | -5.47
80 | CN(Cc1cccnc1)[C@@H]1CN(C(=O)CC2CC2)[C@@H]2CCCO[C@H]12 | 0.0586
81 | CO[C@@H]1CC[C@@H](N(C)C(=O)c2cn3cc(C)ccc3n2)[C@H]1O | -9
82 | COc1ccc(C(C)NC(=O)NCCc2ccc(C)nc2)c(OC)c1 (configuration not stated) | 24
83 | Cc1cc2c(=O)n(CCSc3cnn[nH]3)cnc2s1 | -12.3
84 | Cc1occc1C(=O)N1CCC2(CCCN(Cc3nccs3)C2)C1 (configuration not stated) | 1.62
85 | CCOC(=O)CCNC(=O)N1CCN(c2nc3ccccc3n2C)CC1 | -9.85
86 | CO[C@H]1CCN(C(=O)Cc2ccccn2)[C@H]1Cc1ccncc1 | -7.06
87 | CC(C)c1csc(C(=O)N(C)c2ccc(Br)cn2)n1 | -3.47
88 | CN(C)c1ccc(C(=O)N(Cc2ccncc2)CC2CCCO2)nn1 (configuration not stated) | -4.51
89 | O=C(NCCC(=O)N1CCCc2ccccc21)c1ccc(F)cc1F | -14.2
90 | Cc1ccc(-c2nc(CN3CCCC3Cn3cc(C)cn3)no2)cc1 (configuration not stated) | 23.6
91 | CCCc1nc(C)c(C(=O)NCCN2CCCCC2)s1 | -1.37
92 | Cc1cc(-c2nn(C)c(Cl)c2CN2CC[C@@](O)(C3CCC3)[C@H](C)C2)no1 | 0.567

Row | Compound | cytotoxicity at 70.5 h [%]
93 | Cc1nn(C)c2cn(C(C)C(=O)NCc3ccccn3)nc12 (configuration not stated) | -11.2
94 | Cc1cccc(C(C(=O)N(C)Cc2cc(C)no2)N(C)C)c1 (configuration not stated) | -7.53
95 | CCN(CC)C(=O)CN1CCc2nc(C3CCNCC3)nc(NC)c2C1 | -4.13
96 | CC(=O)N1CCN(c2ccc(Cl)nn2)C(=O)C1 | -7.52
97 | CN(CCSc1nncn1CC(F)(F)F)c1ccccc1 | 1.22
98 | CCN1C[C@@H]2CN(C(=O)c3ccsc3)C[C@@H]2C1=O | -0.46
99 | Cc1nc(CNC(C)c2ccc(OCC(=O)NC3CC3)cc2)cs1 (configuration not stated) | 3.83
100 | O=S(=O)(NCc1cc2n(n1)CCNC2)c1ccc(OC(F)(F)F)cc1 | -16.5
101 | CCO[C@@H]1C[C@H]2CN(Cc3ccc(C)o3)CCN2C1 | -11.9
102 | CC(NC(=O)NCCN1CCCCCC1=O)c1nncn1C (configuration not stated) | 7.16
103 | C[C@@H]1CN(Cc2cc3ccccc3n2C)CC[C@]1(C)O | 16.1
104 | COc1cccc(-c2ncc(CN3CC[C@H]4CC[C@@H](C3)N4)s2)c1 | 9.35
105 | CCNc1ccnc(NCC2(N(C)C)CCOCC2)n1 | -5.81
106 | CC1(C)CCC(CC(=O)O)c2ccccc21 (configuration not stated) | -3.28
107 | CCc1ccccc1CNC(=O)CNC(=O)C(C)(C)C | -6.65
108 | CS(=O)(=O)N1CCC(Oc2ccc(C(=O)NC3CCOC3)cc2Cl)CC1 (configuration not stated) | -7.64
109 | COc1ncccc1CNCc1c(C(C)C)nn(C)c1N(C)C | -1.75
110 | Cn1cccc1C(=O)NS(=O)(=O)c1cnn(-c2ccccc2F)c1 | 11.6
111 | CCC(=O)N1CCCC(Cn2cc(-c3ccc(F)cc3)nn2)C1 (configuration not stated) | -6.83
112 | O=S(=O)(CCO)CCc1ccccc1Cl | -9.35
